Results reported in PMC11054269, “Synergistic Biomedical Potential and Molecular Docking Analyses of Coumarin–Triazole Hybrids as Tyrosinase Inhibitors: Design, Synthesis, In Vitro Profiling, and In Silico Studies” (Pharmaceuticals, 2024).
“And” between values parts separate entries of the source, which are not always exact repeats. Identical values can stand only once. Like-named read-outs stand apart in the source and are kept apart here.

Tests used:
tyrosinase = assay: spectrophotometric tyrosinase inhibition assay with L-DOPA as substrate; format: biochemical, Bacillus subtilis NCTC 10400; conditions: for %Age Inhibition: test concentration not given
Experimental: The synthesized coumarin–triazole hybrids were subjected to spectrophotometric assay for tyrosinase by employing […]. The tyrosine enzyme was extracted from Bacillus subtilis NCTC 10400. The anti-tyrosinase potential of all the coumarin–triazole hybrids was screened by using L-DOPA (levodopa) as the substrate. All the coumarin derivatives were dissolved in DMSO. […] The coumarin derivatives along with the tyrosine enzyme (0.5 mg/mL) were pre-incubated for 10 min in buffer at 25 °C. Pre-incubation of tyrosinase and coumarin derivative was followed by the addition of levodopa (0.5 mM), and the reaction was monitored by absorbance measurement at 475 nm. The IC50 values were calculated by interpolation of the dose–response curves. The following formula was applied to calculate the percentage inhibition of tyrosinase:%age Inhibition = (B − S/B) × 100 where S and B are the absorbance values for the sample and blank, respectively.

[1] = L-DOPA 0.5 mM, pH 6.8, 25 °C, means ± SEs (n = 3), read-out: IC50
[2] = L-DOPA substrate, unit inferred, read-out: IC50 (unit inferred)

| SMILES | melting point | IC50 (tyrosinase; [1]) | %Age Inhibition (tyrosinase; L-DOPA 0.5 mM, pH 6.8, 25 °C) | IC50 (tyrosinase; [2]) |
| --- | --- | --- | --- | --- |
| COc1ccc(-n2c(SCC(=O)Oc3ccc4c(C)cc(=O)oc4c3)nnc2-c2cc3cc(Cl)ccc3o2)cc1 [Compound 17g, 4-Methyl-2-oxo-2H-chromen-7-yl2-((5-(5-chlorobenzofuran-2-yl)-4-(4-methoxyphenyl)-4H-1,2,4-triazol-3-yl)thio)acetate] | 200 °C | 3.98 µM | 31.0609 ± 0.19% and 31.060 ± 0.19% | 3.98 ± 0.12 µM |
| O=c1cc(CO)occ1O [Kojic acid, reference compound] |  |  | 6.79 ± 0.58% |  |
| COc1cccc2cc(-c3nnc(SCC(=O)Oc4ccc5c(C)cc(=O)oc5c4)n3-c3ccccc3)oc12 [Compound 17b, 4-Methyl-2-oxo-2H-chromen-7-yl-2-((5-(7-methoxybenzofuran-2-yl)-4-phenyl-4H-1,2,4-triazol-3-yl)thio)acetate] | 140 °C | 14.1 ± 0.17 µM | 6.3009 ± 0.14% and 6.30 ± 0.14% | 14.1 ± 0.17 µM |
| COc1ccc(-n2c(SCC(=O)Oc3ccc4c(C)cc(=O)oc4c3)nnc2-c2cc3cccc(OC)c3o2)cc1 [Compound 17c, 4-Methyl-2-oxo-2H-chromen-7-yl-2-((5-(7-methoxybenzofuran-2-yl)-4-(4-methoxyphenyl)-4H-1,2,4-triazol-3-yl)thio)acetate] | 137 °C | 13 ± 0.32 µM | 5.11 ± 0.15% | 13 ± 0.32 µM |
| COc1ccc(-n2c(SCC(=O)Oc3ccc4c(C)cc(=O)oc4c3)nnc2-c2cc3cc(Br)ccc3o2)cc1 [Compound 17e, 4-Methyl-2-oxo-2H-chromen-7-yl-2-((5-(5-bromobenzofuran-2-yl)-4-(4-methoxyphenyl)-4H-1,2,4-triazol-3-yl)thio)acetate] | 220 °C | 0.339 µM and 0.33 µM | 30.85 ± 0.15% | 0.339 ± 0.08 µM |
| Cc1cc(=O)oc2cc(OC(=O)CSc3nnc(-c4cc5cc(Br)ccc5o4)n3-c3ccccc3)ccc12 [Compound 17d, 4-Methyl-2-oxo-2H-chromen-7-yl-2-((5-(5-bromobenzofuran-2-yl)-4-phenyl-4H-1,2,4-triazol-3-yl)thio)acetate] | 232 °C | 5.89 ± 0.09 µM | 23.097 ± 0.13% and 23.09 ± 0.13% | 5.89 ± 0.09 µM |
| Cc1cc(=O)oc2cc(OC(=O)CSc3nnc(-c4cc5cc(Cl)ccc5o4)n3-c3ccccc3)ccc12 [Compound 17f, 4-Methyl-2-oxo-2H-chromen-7-yl-2-((5-(5-chlorobenzofuran-2-yl)-4-phenyl-4H-1,2,4-triazol-3-yl)thio)acetate] | 226 °C | 3.15 µM and 3.14 µM | 36.134 ± 0.21% and 36.13 ± 0.21% | 3.15 ± 0.23 µM |
| Cc1cc(=O)oc2cc(OC(=O)CSc3nnc(-c4cc5ccccc5o4)n3-c3ccccc3)ccc12 [Compound 17a, 4-Methyl-2-oxo-2H-chromen-7-yl-2-((5-(benzofuran-2-yl)-4-phenyl-4H-1,2,4-triazol-3-yl)thio)acetate] | 152 °C | 8.13 ± 0.13 µM | 12.023 ± 0.21% and 12.02 ± 0.21% | 8.14 ± 0.13 µM |
| Cc1cc(=O)oc2cc(OC(=O)CSc3nnc(-c4cc5c(ccc6ccccc65)o4)n3-c3ccccc3)ccc12 [Compound 17h, 4-Methyl-2-oxo-2H-chromen-7-yl-2-((5-(naphtho[2,1-b]furan-2-yl)-4-phenyl-4H-1,2,4-triazol-3-yl)thio)acetate] |  | 5.13 ± 0.05 µM | 30.62 ± 0.33% |  |
